By IC50 is commonly meant the point on the concentration scale where inhibition reaches its midpoint.

Drawing on patent US20260216198A1, “GPR35 MODULATORS” (ThirtyFiveBio Limited, priority 2023, published 2026), this text covers IC50 for 35 compounds.

Bounds are passed on as bounds.

T1 sequence (Q9HC97 whole entry): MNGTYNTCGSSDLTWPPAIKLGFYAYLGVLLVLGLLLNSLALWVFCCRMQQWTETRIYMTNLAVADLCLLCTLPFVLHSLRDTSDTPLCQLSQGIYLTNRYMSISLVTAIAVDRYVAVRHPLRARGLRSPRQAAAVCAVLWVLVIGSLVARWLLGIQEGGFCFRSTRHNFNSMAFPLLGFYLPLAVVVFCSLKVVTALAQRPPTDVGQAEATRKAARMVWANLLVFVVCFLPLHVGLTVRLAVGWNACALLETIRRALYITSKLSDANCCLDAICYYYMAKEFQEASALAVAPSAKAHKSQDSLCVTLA

This experiment concerns the target T1, GPR35 (Homo sapiens, UniProt Q9HC97).
T1 construct: expressed in transfected cells; host or cells: CHO-K1 cells co-expressing mitochondrial aequorin and Gα16
Put plainly: cellular GPR35 phospho-ERK HTRF assay (inhibition of lodoxamide-induced phospho-ERK signal). It counts as cell-based. Particulars: GPR35-CHO-K1-mt aequorin-Gα16 cell line; agonist lodoxamide at EC80; read-out: Activity Group (IC50, inhibition of GPR35 agonist-induced phospho-ERK signal). From the text: The functional GPR35 assay as described in the accompanying examples measures the ability of GPR35 modulators to inhibit a GPR35 agonist-induced phospho-ERK signal. This is expressed as the concentration of modulator required to reduce the phospho-ERK signal by 50 percent, i.e. the IC50; the signal window being defined as the difference between agonist plus modulator vehicle (no modulator) and agonist vehicle (no agonist) controls.
The functional assay described measures the ability of GPR35 modulators to inhibit a GPR35 agonist-induced phospho-ERK signal. This is expressed as the concentration of modulator required to reduce the phospho-ERK signal by 50 percent, i.e. the IC50; the signal window being defined as the difference between agonist plus modulator vehicle (no modulator) and agonist vehicle (no agonist) controls.
This assay is a cellular GPR35 phospho-ERK homogeneous time resolved fluorescence (HTRF) assay using the GPR35-CHO-K1-mt aequorin-Gα16 cell line. Upon activation of GPR35 with the agonist lodoxamide at EC80 concentration, ERK 1/2 is phosphorylated, and after lysis of the cell membrane, phospho-ERK1/2 (Thr202/Tyr204) is detected in a sandwich assay using two different specific antibodies, one labelled with Eu^3+-cryptate (donor) and the second with d2 (acceptor). When the dyes are in proximity, the excitation of the donor with a light source (laser or flash lamp) triggers a Fluorescence Resonance Energy Transfer (FRET) towards the acceptor, resulting in specific acceptor fluorescence (at 665 nm). The specific signal is directly proportional to the amount of phospho-ERK1/2 (Thr202/Tyr204) in the sample. Compounds that interfere with the levels of phospho-ERK1/2 (Thr202/Tyr204) will result in a low HTRF signal.
In general terms: Time-resolved FRET reads energy transfer from a long-lived donor to a nearby acceptor.
As to `O=C(Nc1ccc(OCCc2ccccc2)cc1)c1cccc(-c2ccc(O)c(C(=O)O)c2)c1` [Example 1, 4-Hydroxy-3′-((4-phenethoxyphenyl)carbamoyl)-[1,1′-biphenyl]-3-carboxylic acid], the IC50 is less than 1000 nM. Take `O=C(Nc1ccc(OCCc2ccccc2)cc1)c1cccc(-c2cnc(C3CC3)c(C(=O)O)c2)c1` [Example 2, 2-Cyclopropyl-5-(3-((4-phenethoxyphenyl)carbamoyl)phenyl)nicotinic acid]: the IC50 was less than 1000 nM.

For the compound `O=C(Nc1ccc(OCCc2ccccc2)cc1)c1cccc(-c2c[nH]c(=O)c(C(=O)O)c2)c1` [Example 3, 2-oxo-5-(3-((4-Phenethoxyphenyl)carbamoyl)phenyl)-1,2-dihydropyridine-3-carboxylic acid], the IC50 is less than 1000 nM. Consider `O=C(Nc1ccc(OCCc2ccccc2)cc1)c1cccc(-c2cnc(C(F)(F)F)c(C(=O)O)c2)c1` [Example 4, 5-(3-((4-Phenethoxyphenyl)carbamoyl)phenyl)-2-(trifluoromethyl)nicotinic acid], for which the IC50 is less than 1000 nM.

On to `O=C(O)c1cncc(-c2cccc(C(=O)Nc3ccc(OCCc4ccccc4)cc3)c2)c1` [Example 5, 5-(3-((4-Phenethoxyphenyl)carbamoyl)phenyl)nicotinic acid], for which the IC50 is less than 1000 nM. `O=C(O)Cc1cncc(-c2cccc(C(=O)Nc3ccc(OCCc4ccccc4)cc3)c2)c1` [Example 6, 2-(5-(3-((4-Phenethoxyphenyl)carbamoyl)phenyl)pyridin-3-yl)acetic acid]: the IC50 is less than 1000 nM. With `O=C(Nc1ccc(OCCc2ccccc2)cc1)c1cccc(-c2ccnc(C(=O)O)n2)c1` [Example 7, 4-(3-((4-Phenethoxyphenyl)carbamoyl)phenyl)pyrimidine-2-carboxylic acid] the figure was less than 1000 nM; with `Cc1ccc(-c2cccc(C(=O)Nc3ccc(OCCc4ccccc4)cc3)c2)nc1C(=O)O` [Example 8, 3-Methyl-6-(3-((4-phenethoxyphenyl)carbamoyl)phenyl)picolinic acid], less than 1000 nM.

Take `Nc1ncc(-c2cccc(C(=O)Nc3ccc(OCCc4ccccc4)cc3)c2)nc1C(=O)O` [Example 9, 3-Amino-6-(3-((4-phenethoxyphenyl)carbamoyl)phenyl)pyrazine-2-carboxylic acid]: the IC50 was less than 1000 nM. As to `Cc1ncc(-c2cccc(C(=O)Nc3ccc(OCCc4ccccc4)cc3)c2)nc1C(=O)O` [Example 10, 3-Methyl-6-(3-((4-phenethoxyphenyl)carbamoyl)phenyl)pyrazine-2-carboxylic acid], the IC50 was less than 1000 nM.

With `O=C(Nc1ccc(OCCc2ccccc2)cc1)c1cccc(-c2cnc(F)c(C(=O)O)c2)c1` [Example 11, 2-Fluoro-5-(3-((4-phenethoxyphenyl)carbamoyl)phenyl)nicotinic acid], the IC50 is less than 1000 nM.

Turning to `Nc1ncc(-c2cccc(C(=O)Nc3ccc(OCCc4ccccc4)cc3)c2)cc1C(=O)O` [Example 12, 2-Amino-5-(3-((4-phenethoxyphenyl)carbamoyl)phenyl)nicotinic acid], the IC50 is less than 1000 nM.

Turning to `O=C(O)c1ccnc(-c2cccc(C(=O)Nc3ccc(OCCc4ccccc4)cc3)c2)c1` [Example 13, 2-(3-((4-Phenethoxyphenyl)carbamoyl)phenyl)isonicotinic acid], the IC50 is less than 1000 nM.

Take `O=C(Nc1ccc(OCCc2ccccc2)cc1)c1cccc(-c2cncc(C(=O)O)n2)c1` [Example 14, 6-(3-((4-Phenethoxyphenyl)carbamoyl)phenyl)pyrazine-2-carboxylic acid]: the IC50 was less than 1000 nM.

For `Cc1ncc(-c2cccc(C(=O)Nc3ccc(OCCc4ccccc4)cc3)c2)cc1C(=O)O` [Example 15, 2-Methyl-5-(3-((4-phenethoxyphenyl)carbamoyl)phenyl)nicotinic acid], the IC50 is less than 1000 nM. As for `Nc1ccc(-c2cccc(C(=O)Nc3ccc(OCCc4ccccc4)cc3)c2)cc1C(=O)O` [Example 16, 4-amino-3′-((4-phenethoxyphenyl)carbamoyl)-[1,1′-biphenyl]-3-carboxylic acid], the figure is less than 1000 nM; as for `COc1ncc(-c2cccc(C(=O)Nc3ccc(OCCc4ccccc4)cc3)c2)cc1C(=O)O` [Example 17, 2-Methoxy-5-(3-((4-phenethoxyphenyl)carbamoyl)phenyl)nicotinic acid], less than 1000 nM; as for `O=C(Nc1ccc(OCCc2ccccc2)cc1)c1cccc(-c2cccc(C(=O)O)n2)c1` [Example 18, 6-(3-((4-Phenethoxyphenyl)carbamoyl)phenyl)picolinic acid], less than 1000 nM. As for `O=C(Nc1ccc(OCCc2ccccc2)cc1)c1cccc(-c2cnc(Cl)c(C(=O)O)c2)c1` [Example 19, 2-Chloro-5-(3-((4-phenethoxyphenyl)carbamoyl)phenyl)nicotinic acid], the figure is less than 1000 nM; as for `O=C(O)c1ccc(-c2cccc(C(=O)Nc3ccc(OCCc4ccccc4)cc3)c2)nc1` [Example 20, 6-(3-((4-Phenethoxyphenyl)carbamoyl)phenyl)nicotinic acid], less than 1000 nM; as for `O=C(Nc1ccc(OCCc2ccccc2)cc1)c1cccc(-c2ccnc(C(=O)O)c2)c1` [Example 21, 4-(3-((4-Phenethoxyphenyl)carbamoyl)phenyl)picolinic acid], 1000 to 10000 nM.

With `O=C(Nc1ccc(OCCc2ccccc2)cc1)c1cccc(-c2nccc(C(=O)O)n2)c1` [Example 22, 2-(3-((4-Phenethoxyphenyl)carbamoyl)phenyl)pyrimidine-4-carboxylic acid], the IC50 was less than 1000 nM. As for `O=C(Nc1ccc(OCCc2ccccc2)cc1)c1cccc(-c2ccc(C(=O)O)nc2)c1` [Example 23, 5-(3-((4-Phenethoxyphenyl)carbamoyl)phenyl)picolinic acid], the IC50 was in the range of 1000 to 10000 nM.

With `Cc1ccc(C(=O)O)nc1-c1cccc(C(=O)Nc2ccc(OCCc3ccccc3)cc2)c1` [Example 24, 5-Methyl-6-(3-((4-phenethoxyphenyl)carbamoyl)phenyl)picolinic acid], the IC50 was less than 1000 nM. With `Cc1ncc(C(=O)O)cc1-c1cccc(C(=O)Nc2ccc(OCCc3ccccc3)cc2)c1` [Example 25, 6-Methyl-5-(3-((4-phenethoxyphenyl)carbamoyl)phenyl)nicotinic acid] the figure was 1000 to 10000 nM; with `O=C(Nc1ccc(OCCc2ccccc2)cc1)c1cccc(-c2ccncc2C(=O)O)c1` [Example 26, 4-(3-((4-Phenethoxyphenyl)carbamoyl)phenyl)nicotinic acid], 1000 to 10000 nM; with `Cc1c(C(=O)O)cncc1-c1cccc(C(=O)Nc2ccc(OCCc3ccccc3)cc2)c1` [Example 27, 4-Methyl-5-(3-((4-phenethoxyphenyl)carbamoyl)phenyl)nicotinic acid], 1000 to 10000 nM. In the case of `O=C(Nc1ccc(OCCc2ccccc2)cc1)c1cccc(-c2cnnc(C(=O)O)c2)c1` [Example 28, 5-(3-((4-Phenethoxyphenyl)carbamoyl)phenyl)pyridazine-3-carboxylic acid], the IC50 is less than 1000 nM. Regarding `NC(=O)c1ncc(-c2cccc(C(=O)Nc3ccc(OCCc4ccccc4)cc3)c2)cc1C(=O)O` [Example 29, 2-Carbamoyl-5-(3-((4-phenethoxyphenyl)carbamoyl)phenyl)nicotinic acid], the IC50 is 1000 to 10000 nM. Turning to `CS(=O)(=O)Nc1ncc(-c2cccc(C(=O)Nc3ccc(OCCc4ccccc4)cc3)c2)cc1C(=O)O` [Example 30, 2-(Methylsulfonamido)-5-(3-((4-phenethoxyphenyl)carbamoyl)phenyl)nicotinic acid], the IC50 is less than 1000 nM. Regarding `Cn1cc(-c2cccc(C(=O)Nc3ccc(OCCc4ccccc4)cc3)c2)cc(C(=O)O)c1=O` [Example 31, 1-Methyl-2-oxo-5-(3-((4-phenethoxyphenyl)carbamoyl)phenyl)-1,2-dihydropyridine-3-carboxylic acid], the IC50 lay within 1000 to 10000 nM. As to `O=C(Nc1ccc(OCCc2ccccc2)cc1)c1cccc(-c2cnc(CN3CCOCC3)c(C(=O)O)c2)c1` [Example 32, 2-(Morpholinomethyl)-5-(3-((4-phenethoxyphenyl)carbamoyl)phenyl)nicotinic acid], the concentration for half-maximal inhibition (IC50) lay within 1000 to 10000 nM. As to `O=C(Nc1ccc(OCCc2ccccc2)cc1)c1cccc(-c2cnc(N3CCOCC3)c(C(=O)O)c2)c1` [Example 33, 2-Morpholino-5-(3-((4-phenethoxyphenyl)carbamoyl)phenyl)nicotinic acid], the IC50 was less than 1000 nM. `CNc1ncc(-c2cccc(C(=O)Nc3ccc(OCCc4ccccc4)cc3)c2)cc1C(=O)O` [Example 34, 2-(Methylamino)-5-(3-((4-phenethoxyphenyl)carbamoyl)phenyl)nicotinic acid]: the IC50 was less than 1000 nM. As for `CN(C)c1ncc(-c2cccc(C(=O)Nc3ccc(OCCc4ccccc4)cc3)c2)cc1C(=O)O` [Example 35, 2-(Dimethylamino)-5-(3-((4-phenethoxyphenyl)carbamoyl)phenyl)nicotinic acid], the figure is less than 1000 nM.
